20 substances from the OligoGym collection can be followed below.

Oligonucleotides are given in HELM: sugar(base)linkage, 5' to 3'; d 2'-deoxyribose, r ribose, m 2'-O-methylribose, p phosphate. ss, as = sense and antisense strand
Also: test concentration or dose not given here.

For this series, the target named is SOST. Nature of the series: reporter assay of Huesken 2005. The following applies: siRNA. In general terms: Reporter assays use an easily measured gene product as a stand-in for the process of interest.
In turn, “RNA1{r(G)p.r(A)p.r(C)p.r(G)p.r(U)p.r(G)p.r(U)p.r(C)p.r(C)p.r(G)p.r(A)p.r(G)p.r(U)p.r(A)p.r(C)p.r(A)p.r(G)p.r(C)p.r(U)p.d(T)p.d(T)}|RNA2{r(A)p.r(G)p.r(C)p.r(U)p.r(G)p.r(U)p.r(A)p.r(C)p.r(U)p.r(C)p.r(G)p.r(G)p.r(A)p.r(C)p.r(A)p.r(C)p.r(G)p.r(U)p.r(C)p.d(T)p.d(T)}$$$RNA1{StrandType:ss}|RNA2{StrandType:as}$” displayed a normalised inhibition (eCFP-eYFP dual reporter) of 75.8%.

The substance “RNA1{r(G)p.r(A)p.r(G)p.r(G)p.r(G)p.r(C)p.r(C)p.r(A)p.r(G)p.r(G)p.r(G)p.r(G)p.r(U)p.r(G)p.r(G)p.r(C)p.r(A)p.r(G)p.r(G)p.d(T)p.d(T)}|RNA2{r(C)p.r(C)p.r(U)p.r(G)p.r(C)p.r(C)p.r(A)p.r(C)p.r(C)p.r(C)p.r(C)p.r(U)p.r(G)p.r(G)p.r(C)p.r(C)p.r(C)p.r(U)p.r(C)p.d(C)p.d(A)}$$$RNA1{StrandType:ss}|RNA2{StrandType:as}$” showed a normalised inhibition (eCFP-eYFP dual reporter) of 71.1%.

Substance “RNA1{r(G)p.r(C)p.r(C)p.r(A)p.r(G)p.r(G)p.r(G)p.r(G)p.r(U)p.r(G)p.r(G)p.r(C)p.r(A)p.r(G)p.r(G)p.r(C)p.r(G)p.r(U)p.r(U)p.d(T)p.d(T)}|RNA2{r(A)p.r(A)p.r(C)p.r(G)p.r(C)p.r(C)p.r(U)p.r(G)p.r(C)p.r(C)p.r(A)p.r(C)p.r(C)p.r(C)p.r(C)p.r(U)p.r(G)p.r(G)p.r(C)p.d(C)p.d(C)}$$$RNA1{StrandType:ss}|RNA2{StrandType:as}$” returned a normalised inhibition (eCFP-eYFP dual reporter) of 77.7%.

As to “RNA1{r(G)p.r(C)p.r(C)p.r(C)p.r(A)p.r(A)p.r(C)p.r(G)p.r(C)p.r(C)p.r(A)p.r(U)p.r(C)p.r(G)p.r(G)p.r(C)p.r(C)p.r(G)p.r(C)p.d(T)p.d(T)}|RNA2{r(G)p.r(C)p.r(G)p.r(G)p.r(C)p.r(C)p.r(G)p.r(A)p.r(U)p.r(G)p.r(G)p.r(C)p.r(G)p.r(U)p.r(U)p.r(G)p.r(G)p.r(G)p.r(C)p.d(A)p.d(G)}$$$RNA1{StrandType:ss}|RNA2{StrandType:as}$”, the normalised inhibition (eCFP-eYFP dual reporter) amounted to 64.3%.

Take “RNA1{r(G)p.r(C)p.r(C)p.r(G)p.r(C)p.r(G)p.r(C)p.r(G)p.r(C)p.r(G)p.r(C)p.r(G)p.r(C)p.r(A)p.r(A)p.r(G)p.r(G)p.r(U)p.r(G)p.d(T)p.d(T)}|RNA2{r(C)p.r(A)p.r(C)p.r(C)p.r(U)p.r(U)p.r(G)p.r(C)p.r(G)p.r(C)p.r(G)p.r(C)p.r(G)p.r(C)p.r(G)p.r(C)p.r(G)p.r(G)p.r(C)p.d(G)p.d(C)}$$$RNA1{StrandType:ss}|RNA2{StrandType:as}$”: the normalised inhibition (eCFP-eYFP dual reporter) was found to be 57.1%.

“RNA1{r(G)p.r(C)p.r(G)p.r(A)p.r(C)p.r(C)p.r(U)p.r(A)p.r(G)p.r(U)p.r(G)p.r(G)p.r(G)p.r(C)p.r(C)p.r(C)p.r(G)p.r(A)p.r(C)p.d(T)p.d(T)}|RNA2{r(G)p.r(U)p.r(C)p.r(G)p.r(G)p.r(G)p.r(C)p.r(C)p.r(C)p.r(A)p.r(C)p.r(U)p.r(A)p.r(G)p.r(G)p.r(U)p.r(C)p.r(G)p.r(C)p.d(C)p.d(A)}$$$RNA1{StrandType:ss}|RNA2{StrandType:as}$”: the normalised inhibition (eCFP-eYFP dual reporter) turned out to be 66%.

In turn, “RNA1{r(G)p.r(C)p.r(G)p.r(C)p.r(G)p.r(C)p.r(A)p.r(A)p.r(G)p.r(G)p.r(U)p.r(G)p.r(C)p.r(G)p.r(C)p.r(C)p.r(U)p.r(G)p.r(G)p.d(T)p.d(T)}|RNA2{r(C)p.r(C)p.r(A)p.r(G)p.r(G)p.r(C)p.r(G)p.r(C)p.r(A)p.r(C)p.r(C)p.r(U)p.r(U)p.r(G)p.r(C)p.r(G)p.r(C)p.r(G)p.r(C)p.d(G)p.d(C)}$$$RNA1{StrandType:ss}|RNA2{StrandType:as}$” showed a normalised inhibition (eCFP-eYFP dual reporter) of 41.3%.

In the case of “RNA1{r(G)p.r(C)p.r(G)p.r(U)p.r(U)p.r(C)p.r(A)p.r(A)p.r(G)p.r(A)p.r(A)p.r(U)p.r(G)p.r(A)p.r(U)p.r(G)p.r(C)p.r(C)p.r(A)p.d(T)p.d(T)}|RNA2{r(U)p.r(G)p.r(G)p.r(C)p.r(A)p.r(U)p.r(C)p.r(A)p.r(U)p.r(U)p.r(C)p.r(U)p.r(U)p.r(G)p.r(A)p.r(A)p.r(C)p.r(G)p.r(C)p.d(C)p.d(T)}$$$RNA1{StrandType:ss}|RNA2{StrandType:as}$”, the normalised inhibition (eCFP-eYFP dual reporter) was determined as 93.4%.

Substance “RNA1{r(G)p.r(C)p.r(U)p.r(A)p.r(C)p.r(C)p.r(G)p.r(C)p.r(G)p.r(C)p.r(G)p.r(C)p.r(A)p.r(G)p.r(C)p.r(G)p.r(C)p.r(G)p.r(U)p.d(T)p.d(T)}|RNA2{r(A)p.r(C)p.r(G)p.r(C)p.r(G)p.r(C)p.r(U)p.r(G)p.r(C)p.r(G)p.r(C)p.r(G)p.r(C)p.r(G)p.r(G)p.r(U)p.r(A)p.r(G)p.r(C)p.d(G)p.d(G)}$$$RNA1{StrandType:ss}|RNA2{StrandType:as}$” gave a normalised inhibition (eCFP-eYFP dual reporter) of 51.8%.

For the substance “RNA1{r(G)p.r(C)p.r(U)p.r(C)p.r(C)p.r(G)p.r(G)p.r(C)p.r(C)p.r(A)p.r(G)p.r(U)p.r(G)p.r(C)p.r(G)p.r(G)p.r(C)p.r(C)p.r(C)p.d(T)p.d(T)}|RNA2{r(G)p.r(G)p.r(G)p.r(C)p.r(C)p.r(G)p.r(C)p.r(A)p.r(C)p.r(U)p.r(G)p.r(G)p.r(C)p.r(C)p.r(G)p.r(G)p.r(A)p.r(G)p.r(C)p.d(A)p.d(C)}$$$RNA1{StrandType:ss}|RNA2{StrandType:as}$”, the normalised inhibition (eCFP-eYFP dual reporter) worked out at 53%.

“RNA1{r(G)p.r(C)p.r(U)p.r(G)p.r(C)p.r(A)p.r(C)p.r(U)p.r(U)p.r(C)p.r(A)p.r(C)p.r(C)p.r(C)p.r(G)p.r(C)p.r(U)p.r(A)p.r(C)p.d(T)p.d(T)}|RNA2{r(G)p.r(U)p.r(A)p.r(G)p.r(C)p.r(G)p.r(G)p.r(G)p.r(U)p.r(G)p.r(A)p.r(A)p.r(G)p.r(U)p.r(G)p.r(C)p.r(A)p.r(G)p.r(C)p.d(T)p.d(C)}$$$RNA1{StrandType:ss}|RNA2{StrandType:as}$” gave a normalised inhibition (eCFP-eYFP dual reporter) of 75.4%.

“RNA1{r(G)p.r(G)p.r(A)p.r(C)p.r(C)p.r(G)p.r(A)p.r(G)p.r(G)p.r(C)p.r(C)p.r(G)p.r(C)p.r(U)p.r(C)p.r(G)p.r(G)p.r(C)p.r(C)p.d(T)p.d(T)}|RNA2{r(G)p.r(G)p.r(C)p.r(C)p.r(G)p.r(A)p.r(G)p.r(C)p.r(G)p.r(G)p.r(C)p.r(C)p.r(U)p.r(C)p.r(G)p.r(G)p.r(U)p.r(C)p.r(C)p.d(C)p.d(G)}$$$RNA1{StrandType:ss}|RNA2{StrandType:as}$”: the normalised inhibition (eCFP-eYFP dual reporter) stood at 50.7%.

For “RNA1{r(G)p.r(G)p.r(A)p.r(C)p.r(U)p.r(U)p.r(C)p.r(G)p.r(G)p.r(G)p.r(A)p.r(C)p.r(C)p.r(G)p.r(A)p.r(G)p.r(G)p.r(C)p.r(C)p.d(T)p.d(T)}|RNA2{r(G)p.r(G)p.r(C)p.r(C)p.r(U)p.r(C)p.r(G)p.r(G)p.r(U)p.r(C)p.r(C)p.r(C)p.r(G)p.r(A)p.r(A)p.r(G)p.r(U)p.r(C)p.r(C)p.d(T)p.d(T)}$$$RNA1{StrandType:ss}|RNA2{StrandType:as}$”, the normalised inhibition (eCFP-eYFP dual reporter) came to 53.8%.

With “RNA1{r(G)p.r(G)p.r(A)p.r(G)p.r(C)p.r(U)p.r(C)p.r(A)p.r(A)p.r(G)p.r(G)p.r(A)p.r(C)p.r(U)p.r(U)p.r(C)p.r(G)p.r(G)p.r(G)p.d(T)p.d(T)}|RNA2{r(C)p.r(C)p.r(C)p.r(G)p.r(A)p.r(A)p.r(G)p.r(U)p.r(C)p.r(C)p.r(U)p.r(U)p.r(G)p.r(A)p.r(G)p.r(C)p.r(U)p.r(C)p.r(C)p.d(G)p.d(A)}$$$RNA1{StrandType:ss}|RNA2{StrandType:as}$”, the normalised inhibition (eCFP-eYFP dual reporter) came out at 75%.

Regarding “RNA1{r(G)p.r(G)p.r(G)p.r(C)p.r(G)p.r(G)p.r(C)p.r(C)p.r(U)p.r(C)p.r(C)p.r(C)p.r(C)p.r(A)p.r(C)p.r(C)p.r(A)p.r(C)p.r(C)p.d(T)p.d(T)}|RNA2{r(G)p.r(G)p.r(U)p.r(G)p.r(G)p.r(U)p.r(G)p.r(G)p.r(G)p.r(G)p.r(A)p.r(G)p.r(G)p.r(C)p.r(C)p.r(G)p.r(C)p.r(C)p.r(C)p.d(T)p.d(C)}$$$RNA1{StrandType:ss}|RNA2{StrandType:as}$”, the normalised inhibition (eCFP-eYFP dual reporter) came out at 64.3%.

Substance “RNA1{r(G)p.r(G)p.r(G)p.r(G)p.r(U)p.r(G)p.r(G)p.r(C)p.r(A)p.r(G)p.r(G)p.r(C)p.r(G)p.r(U)p.r(U)p.r(C)p.r(A)p.r(A)p.r(G)p.d(T)p.d(T)}|RNA2{r(C)p.r(U)p.r(U)p.r(G)p.r(A)p.r(A)p.r(C)p.r(G)p.r(C)p.r(C)p.r(U)p.r(G)p.r(C)p.r(C)p.r(A)p.r(C)p.r(C)p.r(C)p.r(C)p.d(T)p.d(G)}$$$RNA1{StrandType:ss}|RNA2{StrandType:as}$” displayed a normalised inhibition (eCFP-eYFP dual reporter) of 48.7%.

Take “RNA1{r(G)p.r(G)p.r(U)p.r(G)p.r(A)p.r(G)p.r(G)p.r(C)p.r(G)p.r(C)p.r(C)p.r(G)p.r(C)p.r(G)p.r(C)p.r(G)p.r(C)p.r(G)p.r(C)p.d(T)p.d(T)}|RNA2{r(G)p.r(C)p.r(G)p.r(C)p.r(G)p.r(C)p.r(G)p.r(C)p.r(G)p.r(G)p.r(C)p.r(G)p.r(C)p.r(C)p.r(U)p.r(C)p.r(A)p.r(C)p.r(C)p.d(A)p.d(C)}$$$RNA1{StrandType:ss}|RNA2{StrandType:as}$”: the normalised inhibition (eCFP-eYFP dual reporter) stood at 26%.

“RNA1{r(G)p.r(U)p.r(A)p.r(G)p.r(U)p.r(G)p.r(G)p.r(A)p.r(G)p.r(G)p.r(G)p.r(C)p.r(C)p.r(A)p.r(G)p.r(G)p.r(G)p.r(G)p.r(U)p.d(T)p.d(T)}|RNA2{r(A)p.r(C)p.r(C)p.r(C)p.r(C)p.r(U)p.r(G)p.r(G)p.r(C)p.r(C)p.r(C)p.r(U)p.r(C)p.r(C)p.r(A)p.r(C)p.r(U)p.r(A)p.r(C)p.d(A)p.d(C)}$$$RNA1{StrandType:ss}|RNA2{StrandType:as}$” had a normalised inhibition (eCFP-eYFP dual reporter) of 63.5%.

In turn, “RNA1{r(G)p.r(U)p.r(G)p.r(C)p.r(C)p.r(G)p.r(C)p.r(A)p.r(G)p.r(C)p.r(G)p.r(C)p.r(C)p.r(A)p.r(A)p.r(G)p.r(C)p.r(C)p.r(G)p.d(T)p.d(T)}|RNA2{r(C)p.r(G)p.r(G)p.r(C)p.r(U)p.r(U)p.r(G)p.r(G)p.r(C)p.r(G)p.r(C)p.r(U)p.r(G)p.r(C)p.r(G)p.r(G)p.r(C)p.r(A)p.r(C)p.d(G)p.d(G)}$$$RNA1{StrandType:ss}|RNA2{StrandType:as}$” had a normalised inhibition (eCFP-eYFP dual reporter) of 49.6%.

Substance “RNA1{r(G)p.r(U)p.r(G)p.r(G)p.r(A)p.r(G)p.r(G)p.r(G)p.r(C)p.r(C)p.r(A)p.r(G)p.r(G)p.r(G)p.r(G)p.r(U)p.r(G)p.r(G)p.r(C)p.d(T)p.d(T)}|RNA2{r(G)p.r(C)p.r(C)p.r(A)p.r(C)p.r(C)p.r(C)p.r(C)p.r(U)p.r(G)p.r(G)p.r(C)p.r(C)p.r(C)p.r(U)p.r(C)p.r(C)p.r(A)p.r(C)p.d(T)p.d(A)}$$$RNA1{StrandType:ss}|RNA2{StrandType:as}$” came in with a normalised inhibition (eCFP-eYFP dual reporter) of 52.8%.
